Here are results for three molecules from article PMC11002876, “KcsA-Kv1.x chimeras with complete ligand-binding sites provide improved predictivity for screening selective Kv1.x blockers” (The Journal of Biological Chemistry, 2024).

Where a SMILES comes first, the peptide text is derived from it.

This test has as its target T1, KcsA-Kv1.1 T-only chimera (Streptomyces lividans, UniProt P0A334, R52A/G53E/A54E/P55A/G56E/A57S/Q58H/L59F/I60S/T61S/Y62I/R64D).
T1 sequence (P0A334 1-160 R52A/G53E/A54E/P55A/G56E/A57S/Q58H/L59F/I60S/T61S/Y62I/R64D): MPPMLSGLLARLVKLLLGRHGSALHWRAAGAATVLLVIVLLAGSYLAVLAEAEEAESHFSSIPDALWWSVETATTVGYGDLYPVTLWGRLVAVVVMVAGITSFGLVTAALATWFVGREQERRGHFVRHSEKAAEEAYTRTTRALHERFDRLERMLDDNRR
The test can be described thus: Phage ELISA-binding assay, KcsA-Kv1.1 T-only. The arrangement: species or system human Kv1.1 turret in Streptomyces lividans KcsA. The conditions noted are these: toxin displayed on M13 phage; Fig. 8C. The procedure: Phage display test solutions were prepared according to routine phage display protocols ([62]). Phosphorylated and annealed oligonucleotides encoding the peptide construct were ligated into linearized pAS62 phagemid vector (https://patents.google.com/patent/WO2022144560A1/en) at a vector/insert ratio of 1:3. The final phagemid construct harbored a signal sequence followed by the peptide of interest, a linker sequence ([…]), and the C-terminal part of the P3 coat protein (amino acids: 216-424 of NP_510891.1). Chemically competent XL1-Blue E. coli cells (2022249, Agilent) were transformed with the ligation product and then streaked onto ampicillin (100 μg/ml) containing LB/Amp plates and incubated for 16 h at 37 °C. A few clones were sequenced, and a single colony with confirmed target sequence was inoculated into 3 ml 2 YT medium supplemented with 100 μg/ml ampicillin and incubated at 37 °C until the culture reached midlog phase. The culture was infected with M13KO7 helper phage (N0315S, New England Biolabs) (phage/cell ratio 10:1) and was incubated for 30 min at 37 °C. The 3 ml culture was transferred into 200 ml 2YT medium, supplemented with 100 μg/ml ampicillin and 25 μg/ml kanamycin, and incubated overnight at 37 °C. The overnight cell culture (200 ml) was pelleted by centrifugation at 8000g for 10 min in 400 ml centrifuge tubes at 4 °C. […] The particle concentrations of phage solutions were determined using a NanoDrop One C (Thermo Fisher Scientific) spectrophotometer. The phage particle concentration was assessed according to the formula: (A268–A320) × 5 × 10^12 particles/ml ([62]). […]
Phage stock solutions were diluted to working concentration with phage resuspension buffer supplemented with 2 mM DDM. […] Following blocking, the wells were washed 4× with washing buffer (300 μl TBS-Tween, 0.1% v/v) using a Wellwash Versa microplate washer (Thermo Fisher Scientific); then 50 μl phage solution (in TBS-BSA-Tween, 0.1% v/v, 2 mM DDM) at determined phage concentration was added to the wells and incubated for 1 h at room temperature on a horizontal shaker. […]
(In an ELISA, binding on a coated surface is turned into a signal by an enzyme label.)
Take `CC[C@H](C)[C@H](NC(=O)[C@H](CCC(=O)O)NC(=O)[C@@H](NC(=O)CN)C(C)C)C(=O)N[C@@H](CC(N)=O)C(=O)N[C@H](C(=O)N[C@@H](CCCCN)C(=O)N[C@H]1CSSC[C@@H]2NC(=O)[C@H](CCCCN)NC(=O)CNC(=O)[C@H](Cc3ccccc3)NC(=O)[C@H](CCCNC(=N)N)NC(=O)[C@H](CCSC)NC(=O)CNC(=O)[C@H](C)NC(=O)[C@H](CC(=O)O)NC(=O)[C@H](CCCCN)NC(=O)[C@@H]3CSSC[C@@H](C(=O)N[C@H](C(=O)N4CCC[C@H]4C(=O)N[C@@H](CCCCN)C(=O)O)[C@@H](C)O)NC(=O)[C@H](Cc4c[nH]cn4)NC(=O)[C@H](CSSC[C@H](NC(=O)[C@H](CCC(N)=O)NC(=O)[C@@H]4CCCN4C(=O)[C@H](CO)NC(=O)CNC(=O)[C@H](CO)NC1=O)C(=O)N[C@@H](CC(C)C)C(=O)N[C@@H](CCCCN)C(=O)N1CCC[C@H]1C(=O)N3)NC(=O)[C@H](CCCCN)NC(=O)[C@H](CCCNC(=N)N)NC(=O)[C@H](CC(N)=O)NC(=O)[C@H](CCSC)NC2=O)C(C)C` [KTX1, Kaliotoxin-1]: the “phage binding to KcsA-Kv1.1 T-only, in words” value (“phage binding” for short) is given as “ShK > KTX1”.

Take `CC[C@H](C)[C@@H]1NC(=O)[C@@H]2CSSC[C@H](NC(=O)[C@H](CO)NC(=O)[C@@H](N)C(C)C)C(=O)N[C@@H]([C@@H](C)O)C(=O)NCC(=O)N[C@@H](CO)C(=O)N[C@@H](CCCCN)C(=O)N[C@@H](CC(=O)O)C(=O)N[C@@H](CSSC[C@@H](C(=O)N[C@@H](CCCCN)C(=O)N[C@H]3CSSC[C@@H](C(N)=O)NC(=O)CNC(=O)[C@H](Cc4ccc(O)cc4)NC3=O)NC(=O)[C@H](CO)NC(=O)[C@H](CCCCN)NC(=O)[C@H](CC(N)=O)NC1=O)C(=O)N[C@@H](Cc1ccc(O)cc1)C(=O)N[C@@H](C)C(=O)N1CCC[C@H]1C(=O)N[C@H]1CSSC[C@H](NC(=O)CNC(=O)[C@H]([C@@H](C)O)NC(=O)[C@H](CCC(N)=O)NC(=O)[C@H](CCCCN)NC(=O)[C@H](CCCNC(=N)N)NC1=O)C(=O)N1CCC[C@H]1C(=O)N[C@@H](CC(N)=O)C(=O)N[C@@H](C)C(=O)N[C@@H](CCCCN)C(=O)N2` [MTX, Maurotoxin] (HELM PEPTIDE1{V.S.C.T.G.S.K.D.C.Y.A.P.C.R.K.Q.T.G.C.P.N.A.K.C.I.N.K.S.C.K.C.Y.G.C.[am]}$PEPTIDE1,PEPTIDE1,3:R3-24:R3|PEPTIDE1,PEPTIDE1,9:R3-29:R3|PEPTIDE1,PEPTIDE1,13:R3-19:R3|PEPTIDE1,PEPTIDE1,31:R3-34:R3$$$V2.0; N-terminus and C-terminus assumed): the “phage binding” value is “negligible binding”.

Consider `CC[C@H](C)[C@@H]1NC(=O)[C@@H](NC(=O)[C@H](CO)NC(=O)[C@@H](N)CCCNC(=N)N)CSSC[C@@H](C(=O)O)NC(=O)[C@H]([C@@H](C)O)NC(=O)CNC(=O)[C@@H]2CSSC[C@@H]3NC(=O)[C@H](CCC(N)=O)NC(=O)[C@H](Cc4ccccc4)NC(=O)[C@H](C)NC(=O)[C@H]([C@@H](C)O)NC(=O)[C@H](CSSC[C@H](NC(=O)[C@H](Cc4ccccc4)NC(=O)[C@H](CO)NC(=O)[C@H](CC(C)C)NC(=O)[C@H](CCCNC(=N)N)NC(=O)[C@H](Cc4ccc(O)cc4)NC(=O)[C@H](CCCCN)NC(=O)[C@H](CCSC)NC(=O)[C@H](CO)NC(=O)[C@H](Cc4c[nH]cn4)NC(=O)[C@H](CCCCN)NC3=O)C(=O)N[C@@H](CCCNC(=N)N)C(=O)N[C@@H](CCCCN)C(=O)N[C@@H]([C@@H](C)O)C(=O)N2)NC(=O)[C@H](CCCNC(=N)N)NC(=O)[C@H](CO)NC(=O)[C@H](CCCCN)NC(=O)[C@@H]2CCCN2C(=O)[C@H]([C@@H](C)CC)NC(=O)[C@H]([C@@H](C)O)NC(=O)[C@H](CC(=O)O)NC1=O` [ShK, Stichodactyla toxin], for which the “phage binding” value is given as “ShK > KTX1”.
